In US20050239873A1 (priority 1999, published 2005):

Key:
[1] = Stability in plasma; type: in vitro ADME, dog; conditions: 37° C., 60 min; for stability: presence of NaF/EDTA
Protocol: (§1) For analysis of samples, two volumes of cold methanol-acetonitrile (50:50, v/v) were added to portions of plasma, culture medium, or cell extract. The preparations were mixed and then centrifuged to obtain clear supernatants, which were dried at room temperature by compressed air. The residues were dissolved in the mobile phase, and a portion was injected onto the HPLC column.
(§2) The HPLC equipment consisted of a Hewlett Packard 1050 ChemStation with a fluorescence detector (Agilent 100 series). […] The mobile phase was methanol:ammonium acetate buffer (87:13 v/v; 0.2 M; pH 5.8, adjusted with HCl). The flow rate was 1 ml/min. The column elute was monitored fluorometrically at an excitation wavelength of 232 nm and an emission wavelength of 418 nm. The amounts of test compounds present in samples were determined from the peak areas.
(§3) Samples of mouse, rat, dog, and human plasma were incubated at 37° C. with and without addition of NaF (2.5 mg/ml) and EDTA (1 mg/ml). To these preparations, 2-OMe antimycin A1, 2-OMe antimcyin A2, 2-OMe antimycin A3, or 2-OMe antimycin A5, dissolved in methanol, was added to final concentrations of 500 ng/ml. Portions of plasma, taken at selected times after addition of the 2-OMe antimycin analog, were extracted and analyzed.

[2] = system: RPMI-8226 cells; assay: GI50 assay (MTT); type: cell-based, human; conditions: 48 h, MTT
Protocol: (§4) RPMI 8226 cells were grown in 96 well plates for 24 h prior to addition of 2-methoxy Antimycins. Antimycin stocks in DMSO were serially diluted in RPMI media. Cells were incubated for 48 h with compounds at final compound concentrations ranging from 10^−4 to 10^−8 M. MTT assays were performed in quadruplicate and percent growth inhibitions were calculated as (A570 (control cells)—A570 (treated cells))/A570 (control cells). The GI50 was extrapolated from semi-log plots of the dose response for each compound. […] After 72 h drug exposures, 1 μCi/ml [^3H]-thymidine was added to wells. Cells were incubated for an additional 24 h, and then transferred to GF/C filter plates (Packard) using a plate washer. Filters were dried, added to scintillant, and counted in a TopCount scintillation counter (Packard). Drug response was expressed as the percentage of vehicle-treated controls, and each value shown as the average of three determinations.

[3] = Stability in plasma; type: in vitro ADME, rat; conditions: 37° C., 60 min, presence of NaF/EDTA
Protocol: as §1, §2, §3

[4] = system: plasma proteins; assay: Binding to plasma proteins (ultrafiltration); type: in vitro ADME, rat; conditions: presence of NaF+EDTA, 1000 ng/ml
[5] = system: plasma proteins; assay: Binding to plasma proteins (ultrafiltration); type: in vitro ADME, human; conditions: presence of NaF+EDTA, 1000 ng/ml
Protocol: Solutions of 2-OMe antimycin A3 were diluted with plasma (dog or human) containing NaF+EDTA to final concentrations of 1.0 or 0.2 μg/ml. Controls were diluted with water to the same final concentrations. These preparations were incubated at 37° C. for 20 min, at which time portions were taken and placed in the sample reservoirs of Amicon Centrifree® ultrafiltration systems (Millipore Co., Bedford, Mass.). At 37° C., the filter systems were centrifuged until the reservoirs were dry. From each filtrate, portions were taken for analysis by HPLC. The amounts present were designated as “free drug” (F). The concentrations of the unfiltered solutions were also determined by triplicate analyses. This amount represented the “total drug” concentration (T). The percentage of 2-OMe antimycin A3 bound to plasma proteins was calculated by the following formula: % bound=((T−F)/T)×100

[6] = system: U266 myeloma cells; assay: [3H]-thymidine incorporation assay; type: cell-based, human; conditions: 72 h drug exposure
Protocol: as §4

[7] = system: RPMI-8226 myeloma cells; assay: [3H]-thymidine incorporation assay; type: cell-based, human
Protocol: as §4

[8] = system: NCI-H929 myeloma cells; assay: [3H]-thymidine incorporation assay; type: cell-based, human; conditions: 72 h drug exposure
Protocol: as §4

[9] = system: TABX1A cells (under-expressing Bcl-xL); assay: Cell viability by trypan blue dye exclusion; conditions: 2 μg/ml, without fructose, six hours
Text: Briefly, a DNA fragment encoding the full-length mouse BCl-xL cDNA was isolated from the plasmid PBS.BCL-xL (Tzung et al., Am. J. Path. 150:1985-1995, 1997, incorporated herein by reference in its entirety) by digestion with the restriction endonuclease EcoRI. This EcoRI fragment was cloned into the EcoRI site of the mammalian expression vector pSFFV (Fuhlbrigge et al., Proc. Nat. Acad. Sci. USA 85:5649-5653, 1988) in both sense and antisense orientations, to form expression plasmids pSFFV.Bcl-xL(sense) or pSFFV.Bcl-xL(antisense), respectively. The tumorigenic murine hepatocyte cell line TAMH was transfected by lipofection (Lipofectamine, Life Technologies, Rockville, Md., according to the manufacturer's recommendations) with the plasmids pSFFV.neo (the control), pSFFV.Bcl-xL(sense) or pSFFV.Bcl-xL(antisense). […] Transfectants were selected for the acquisition of neomycin resistance by growing cells in the presence of 750 μg/ml of G418. Bulk transfectants were cloned by limiting dilution and individual clones were screened by immunoblot analysis to determine the level of BCl-xL protein expression as described below.
Selected transfectants were then tested for whole cell sensitivity to several apoptotic agents. Transfected cells were cultured to reach approximately 80% confluency prior to plating an equal number of cells from selected clones on 12-well tissue culture plates. […] Cell viability was determined by trypan blue dye exclusion. The percentage of viable cells was calculated by the number of viable cells (treated with a particular apoptogenic agent) divided by the number in the control group (untreated).
TABX2S cells and TABX1A cells were also examined for the effects of various mitochondrial inhibitors. […] At various time points after drug treatment, cells were trypsinized, and cell viability was determined by trypan blue dye exclusion. The number of viable cells were counted and normalized to control group (i.e., % control=number of viable cells (treated group)/number of viable cells (control group)×100).

[10] = target: cytochrome bc1 (Bos taurus, UniProt P00157); conditions: cited from earlier work

Molecule: CCCCCC[C@H]1C(=O)O[C@H](C)[C@H](NC(=O)c2cccc(NC=O)c2OC)C(=O)O[C@@H](C)[C@@H]1OC(=O)CC(C)C [2-OMeA1, 2-methoxy antimycin A1]
- added amount remaining ([1]; absence of NaF/EDTA, 500 ng/ml): 61%
- stability [1]: unstable
- GI50 [2]: 8.56 µM
- stability [3]: substantially stable
- Protein binding, Rat [4]: >99.9%
- Protein binding, Human [5]: 99.5%

Molecule: antimycin A
- 50% growth inhibition (GI50) [6]: 0.05 µg/mL
- 50% growth inhibition (GI50) ([7]; 72 h drug exposure): 0.1 µg/mL
- 50% growth inhibition (GI50) [8]: 0.2 µg/mL
- survival [9]: 87%

Molecule: 2-methoxy antimycin A [2-OMeA]
- IC50 [6]: 5 µg/mL
- IC50 ([7]; 72 h drug exposure): 15 µg/mL
- IC50 relative to antimycin A ([7]; RPMI-8226, U266 and NCI-H929): 100 fold
- IC50 [8]: 10 µg/mL
- reduction of oxidative phosphorylation inhibitory activity at complex III ([10]; relative to antimycin A): 1000 fold

Molecule: CCCC[C@H]1C(=O)OC(C)[C@H](NC(=O)c2cccc(NC=O)c2OC)C(=O)O[C@@H](C)C1OC(=O)CC(C)C (stereo partly drawn) [2-OMeA3, Antimycin A3 methyl ether]
- stability [1]: largely stable
- GI50 ([2]; Homo sapiens, RPMI-8226): 10.2 µM
- activity as an inhibitor of cytochrome bc1 [10]: inactive
- stability [3]: largely stable
- Protein binding, Rat [4]: 99.8%
- Protein binding, Human [5]: 99.9%
